Test results reported in patent US20050186135A1, “Compositions, methods, apparatuses, and systems for singlet oxygen delivery” (priority 2001, published 2005).

Experiments:
atherosclerosis = details: in vivo; cited from earlier work
[1] = Ameta et al. 1990; Parker and Stanbro 1984; cited from earlier work
mitosis = details: Lamprecht et al. 1990; cited from earlier work
tumor growth = details: mice, Altermatt et al. 1990; cited from earlier work
[2] = in vivo; cited from earlier work
influenzal pneumonia = details: intravenous hydrogen peroxide solution, Oliver 1920; cited from earlier work
a single cell = details: Oseroff et al. 1986; cited from earlier work
[3] = stated as believed; cited from earlier work
skin keratosis lesion = test: Treatment of Keratosis I: intralesional injection; assay type: in vivo, human; details: 0.4 ml of 6% sodium hypochlorite alone into center of ~1.25 cm lesion
Experimental: A skin keratosis lesion measuring approximately 1.25 cm in diameter was chosen as a target for treatment. The lesion was located on the left temple of a person.
Using a 30-gauge hypodermic needle, 0.4 ml of a 6% solution of sodium hypochlorite was injected into the center of the lesion. […] See FIG. 20 for a photo of the area immediately following the injection.
Immediately after the first injection, using a 30-gauge hypodermic needle, 0.4 ml of a 3% solution of hydrogen peroxide was injected into the center of the lesion. […] See FIG. 21 for a photo of the area immediately following the injection.

[4] = system: coronary artery blocked with sclerotic plaque; test: Treatment of Sclerotic Plaque I: cadaver artery section in test tube; set-up: species or system human; details: 2 ml of 6% sodium hypochlorite, shaken one minute
Source text: A coronary artery blocked with sclerotic plaque, taken from a human cadaver, was chosen as a target site for treatment. The coronary artery was grayish pink in color and suspended in a formaldehyde preservative. It was surrounded with fatty tissue of an irregular shape, which measured approximately 1 cm in its widest dimension. It measured 0.6 cm in length and 0.5 cm diameter. The lumen of the vessel was completed occluded with sclerotic plaque.
The cross section of coronary artery was placed in a test tube containing 2 ml of 6% of sodium hypochlorite and was shaken for one minute. […] This preparation was then again shaken.

[5] = system: coronary artery blocked with sclerotic plaque; test: Treatment of Sclerotic Plaque II: hypochlorite alone, then peroxide added; set-up: species or system human; details: 2 ml of 6% sodium hypochlorite alone
Experimental: The following tests were performed to corroborate that the singlet oxygen produced by the hydrogen peroxide and the sodium hypochlorite had actually cleared and opened the human coronary artery blocked with the sclerotic plaque.
Like Example 3, a coronary artery blocked with sclerotic plaque, taken from a human cadaver, was prepared as a target site for treatment. The coronary artery was grayish pink in color and suspended in a formaldehyde preservative. It was surrounded with fatty tissue of an irregular shape, which measured 1.1 cm in its widest dimension. It measured approximately 0.6 cm in length and 0.5 cm in diameter. The lumen of the vessel was completed occluded with sclerotic plaque.
The human coronary artery with the plaque was first treated with 2 ml of 6% solution of sodium hypochlorite alone.
Immediately after the treatment with the sodium hypochlorite, 2 ml of 3% solution of hydrogen peroxide was added to the 2 ml of 6% solution of sodium hypochlorite containing the human coronary artery with the plaque.

[6] = gives peroxyl and/or alkoxyl radicals; Noguchi et al. 2002; cited from earlier work

CC(=O)[O-].CC(=O)[O-].CCc1c(CC)c2cc3nc(cnc4cc(OCCOCCOCCOC)c(OCCOCCOCCOC)cc4ncc4nc(cc1[n-]2)C(CCCO)=C4C)C(C)=C3CCCO.O.[Lu+3] [Antrin, motexafin lutetium]
feasibility and tolerability of photoangioplasty (atherosclerosis): feasible and well tolerated

[2H]O[2H] [D2O, deuterium oxide]
effect on lifetime of singlet oxygen [1]: can increase the lifetime of singlet oxygen
effect on mitosis (mitosis): anti-mitotic effect optimized between anaphase and metaphase
effect on rate of tumor growth (tumor growth): can depress the rate of tumor growth in mice
safety in infants [2]: safe
toxicity in mammals [2]: low toxicity

OO [hydrogen peroxide]
treatment success (influenzal pneumonia): high rate of success

O=O [singlet oxygen]
molecules of singlet oxygen necessary to kill a single cell (a single cell): 10^10 molecules
lifetime of singlet oxygen [3]: about 50 nanoseconds

OCl [sodium hypochlorite]
bleeding at injection site (skin keratosis lesion): minor bleeding at the lower border of the injection site
sensation on injection (skin keratosis lesion; 30-gauge needle): mild burning sensation
solubilization by hypochlorite alone [4]: minimal solubilization of the surrounding fatty tissue of the vessel
change of plaque with hypochlorite alone [5]: no significant changes occurred to the plaque

CC(C)(C)OO [tert-butyl hydroperoxide]
formation of singlet oxygen on reaction with hypochlorite [6]: little formation of singlet oxygen
